Experimental data from patent US5281628A, “9-amino-7-(substituted)-6-demethyl-6-deoxytetracyclines” (American Cyanamid Company, priority 1991, dated 1994).
Where a name gives a salt, the structure may show the parent alone.

Test system: E. coli UBMS 88-1 (tetB)
Experiment: microbe, parasite or virus in culture
Type: cell-based
Settings: Escherichia coli, 18 h
Description: The minimum inhibitory concentration (MIC), the lowest concentration of the antibiotic which inhibits growth of the test organism, is determined by the microtiter broth dilution method using 0.1 ml Muller-Hinton II broth (Baltimore Biological Laboratories) per well. A suitable oxygen scavenger (i.e., cysteine or dithiothreitol) is added to the assay medium for the testing of compounds according to Formula I because of the sensitivity of those compounds to oxidation. An inoculum level of 1-5×10^5 CFU/ml and a range of antibiotic concentrations (32 0.004 μg/ml) are used.

Q: With `CN(C)c1ccc(O)c2c1C[C@H]1C[C@H]3[C@H](N(C)C)C(O)=C(C(N)=O)C(=O)[C@@]3(O)C(O)=C1C2=O` [B, 7-(Dimethylamino)-6-demethyl-6-deoxytetracycline hydrochloride] as the compound, how does the MIC read?
A: 8 µg/mL
